From patent publication US12295968B2, “Compositions and methods for targeted immunomodulatory antibodies and fusion proteins” (The Johns Hopkins University, priority 2010, dated 2025)
“Also recorded” adds a separate entry of the source.

What was measured:
[1] = system: mouse MB49 bladder cancer cells; assay: Surface exposure of calreticulin (CRT), immunofluorescence cytometry; type: cell-based; conditions: 4 h
[2] = system: tumor-reactive CD8^+ T cells; assay: Flow cytometry of IFN-γ expression in CD8^+ T cells from tumor and draining lymph node, stimulation with MB49 cell lysates; type: in vivo, C57BL/6 mice
Text: (§1) (FIG. 55A) In vivo depletion of tumor-infiltrating CD4^+CD25^+FoxP3^+ T cells by treatment of tumor-bearing mice with anti-CD4 antibody. C57BL/6 mice injected with 5×10^5 MB49 tumor cells s.c. were left untreated (control) or administered an anti-CD4 antibody (Clone GK1.5) i.p. at 5 d and 9 d following tumor challenge. CD4^+CD25^+FoxP3^+ T cells infiltrating tumors isolated from mice at d16 following tumor challenge were detected by flow cytometry. […] Flow cytometric analyses of peripheral blood mononuclear cells isolated from mice at d16 following tumor challenge determined the percentage of CD4^+ T cells or CD8^+ T cells among total mononuclear cells, and the percentage of CD4^+CD25^+FoxP3^+ T cells among total CD4^+ T cells. […] Tumor-reactive immune responses were determined by flow cytometric analyses of IFN-γ expression in CD8^+ T cells from the tumor and draining lymph node in response to in vitro stimulation with MB49 cell lysates. […] Tumor volume was monitored to determine the effect of depleting either CD4^+ T cells or CD8^+ T cells on the in vivo antitumor efficacy of doxorubicin. […]

MB49 tumors [3] = assay: MB49 tumor volume, chemotherapy with or without anti-CD4 or anti-CD8 antibody; type: in vivo, C57BL/6 mice
Text: as §1

[4] = system: human SW780 bladder cancer cells; assay: Surface exposure of calreticulin (CRT), immunofluorescence cytometry; type: cell-based; conditions: doxorubicin 10 μM, 4 h
MB49 tumor cells = assay: Priming of tumor-reactive immune responses: IFN-γ production by draining lymph node (DLN) cells on in vitro re-challenge; type: in vivo, C57BL/6 mice; conditions: intratumoral doxorubicin 10 μg at d10 following tumor inoculation, established tumors
MB49 tumors [5] = assay: Intratumoral doxorubicin in mice with pre-established MB49 tumors, tumor growth; type: in vivo, C57BL/6 mice
[6] = system: mouse NKG2D ligands (Rae-1); assay: Quantitative real-time PCR of Rae1 transcripts in CT26 cells; type: cell-based; conditions: irinotecan 25 μg/ml or oxaliplatin 10 μg/ml
[7] = system: human NKG2D ligands (MICA/MICB); assay: Flow cytometry of cell surface MICA/B on HCT116 cells; type: cell-based; conditions: irinotecan 25 μg/ml, 16 h
CT26 tumors = assay: CT26 tumor volume, irinotecan with or without NKG2D blocking, anti-CD4 and/or anti-CD8 antibody; type: in vivo, Balb/C mice; conditions: irinotecan alone

## N.N.[Cl][Pt][Cl] [cisplatin]
[1]; equitoxic doses
  CRT exposure compared to doxorubicin: less effective in increasing CRT exposure
[2]; cisplatin alone, 0.5 mg/kg i.p. weekly×4 from d7
  IFN-γ expression in CD8^+ T cells: unable to induce a corresponding elevation of IFN-γ expression
MB49 tumors [3]; cisplatin alone, 0.5 mg/kg i.p. weekly×4
  growth of MB49 tumors: partially inhibited tumor growth but failed to arrest tumor progression

## COc1cccc2c1C(=O)c1c(O)c3c(c(O)c1C2=O)C[C@@](O)(C(=O)CO)C[C@@H]3O[C@H]1C[C@H](N)[C@H](O)[C@H](C)O1 [doxorubicin]
[1]; doxorubicin 10 μM
  surface exposure of CRT: induced rapid surface exposure of CRT; also recorded: efficient translocation of CRT to the cell surface
[4]
  surface exposure of CRT: induced rapid surface exposure of CRT
MB49 tumor cells
  IFN-γ secretion by DLN cells on re-challenge with MB49 cell lysates: failed to induce a corresponding increase in IFN-γ secretion
MB49 tumors [5]; intratumoral doxorubicin 10 μg on d3 following tumor inoculation
  tumor growth: able to arrest tumor growth
MB49 tumors [5]; intratumoral doxorubicin 10 μg on d10 following tumor inoculation
  tumor growth: failed to inhibit the progressive growth
[2]; doxorubicin alone, 5 mg/kg i.p. weekly×3 from d7, 5 mg/kg
  IFN-γ^+CD8^+ T cells: IFN-γ^+CD8^+ T cells became evident; also recorded: tumor-reactive IFN-γ^+CD8^+ T cells were evident
MB49 tumors [3]; doxorubicin alone, 5 mg/kg i.p. weekly×3
  growth of MB49 tumors: inhibited the growth of MB49 tumors but failed to arrest tumor progression

## CCc1c2c(nc3ccc(OC(=O)N4CCC(N5CCCCC5)CC4)cc13)-c1cc3c(c(=O)n1C2)COC(=O)[C@]3(O)CC [irinotecan]
[6]
  time after which Rae1 mRNA began to decline: 48 h
[7]; HCT116 cells
  cell surface expression of MICA, MICB: upregulated
[7]; isogenic p53^+/+ and p53^−/− HCT116 cells
  p53 dependence of upregulation of MICA/B: p53 is not required
CT26 tumors; 50 mg/kg i.p. weekly×3 from d5
  growth of CT26 tumors: inhibited the growth of CT26 tumors
CT26 tumors; 50 mg/kg i.p. weekly×3 from d7
  growth of CT26 tumors: only slowed tumor growth

## O=C1[O][Pt]2([NH][C@@H]3CCCC[C@H]3[NH]2)[O]C1=O [oxaliplatin]
[6]
  time after which Rae1 mRNA began to decline: 48 h
